Among the data in ChEMBL document CHEMBL5291721, “A preclinical secondary pharmacology resource illuminates target-adverse drug reaction associations of marketed drugs” (Nat Commun, 2023) are AC50 values, retold here.

Test [1] deals with Prostaglandin G/H synthase 1 (Homo sapiens, UniProt P23219). The format is functional.
For another test, the target named is Histamine H3 receptor (Homo sapiens, UniProt Q9Y5N1).
A further test deals with Cannabinoid receptor 1 (Homo sapiens, UniProt P21554). The format is functional, cell-based.
The target of a further test is Vasopressin V1a receptor (Homo sapiens, UniProt P37288).
The target of a further test is Histamine H2 receptor (Homo sapiens, UniProt P25021). The format is functional, cell-based.
The target of test [2] is T1, Alpha-2B adrenergic receptor (Homo sapiens, UniProt P18089).
T1 sequence (P18089 whole entry): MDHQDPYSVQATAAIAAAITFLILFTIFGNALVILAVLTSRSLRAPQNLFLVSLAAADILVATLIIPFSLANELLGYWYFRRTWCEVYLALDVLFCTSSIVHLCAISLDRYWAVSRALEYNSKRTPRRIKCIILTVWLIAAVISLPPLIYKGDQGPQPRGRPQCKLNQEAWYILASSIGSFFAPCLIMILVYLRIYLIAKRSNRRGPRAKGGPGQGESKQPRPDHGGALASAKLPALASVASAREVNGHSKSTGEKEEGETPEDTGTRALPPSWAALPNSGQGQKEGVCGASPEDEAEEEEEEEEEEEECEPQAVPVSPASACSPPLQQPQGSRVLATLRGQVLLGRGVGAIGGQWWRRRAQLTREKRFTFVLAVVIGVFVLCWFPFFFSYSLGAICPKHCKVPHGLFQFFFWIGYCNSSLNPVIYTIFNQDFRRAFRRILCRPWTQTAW

The target of test [3] is T2, Alpha-1A adrenergic receptor (Homo sapiens, UniProt P35348).
T2 sequence (P35348 whole entry): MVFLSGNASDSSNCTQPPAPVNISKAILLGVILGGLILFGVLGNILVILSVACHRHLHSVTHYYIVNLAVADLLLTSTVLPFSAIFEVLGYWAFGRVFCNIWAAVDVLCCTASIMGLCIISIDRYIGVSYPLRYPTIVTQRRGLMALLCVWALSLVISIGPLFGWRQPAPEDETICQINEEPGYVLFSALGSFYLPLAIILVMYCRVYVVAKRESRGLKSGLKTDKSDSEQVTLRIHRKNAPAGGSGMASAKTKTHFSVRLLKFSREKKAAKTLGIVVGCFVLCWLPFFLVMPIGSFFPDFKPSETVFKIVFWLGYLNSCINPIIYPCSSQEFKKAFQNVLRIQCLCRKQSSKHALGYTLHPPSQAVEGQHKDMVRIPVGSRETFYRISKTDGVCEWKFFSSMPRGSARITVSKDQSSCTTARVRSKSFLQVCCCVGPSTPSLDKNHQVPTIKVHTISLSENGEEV
The format is functional, cell-based.

In a further test the target is T3, Thromboxane A2 receptor (Homo sapiens, UniProt P21731).
T3 sequence (P21731 whole entry): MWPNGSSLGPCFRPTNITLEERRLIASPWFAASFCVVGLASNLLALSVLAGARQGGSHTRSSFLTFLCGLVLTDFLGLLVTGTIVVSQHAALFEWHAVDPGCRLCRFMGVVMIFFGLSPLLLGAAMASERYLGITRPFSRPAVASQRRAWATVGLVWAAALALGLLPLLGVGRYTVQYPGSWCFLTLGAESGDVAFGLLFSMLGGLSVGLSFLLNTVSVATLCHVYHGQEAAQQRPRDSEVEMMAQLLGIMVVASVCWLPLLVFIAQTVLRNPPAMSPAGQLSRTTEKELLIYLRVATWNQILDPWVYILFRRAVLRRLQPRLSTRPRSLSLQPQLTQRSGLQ

The target of the next test is T4, Progesterone receptor (Homo sapiens, UniProt P06401).
T4 sequence (P06401 whole entry): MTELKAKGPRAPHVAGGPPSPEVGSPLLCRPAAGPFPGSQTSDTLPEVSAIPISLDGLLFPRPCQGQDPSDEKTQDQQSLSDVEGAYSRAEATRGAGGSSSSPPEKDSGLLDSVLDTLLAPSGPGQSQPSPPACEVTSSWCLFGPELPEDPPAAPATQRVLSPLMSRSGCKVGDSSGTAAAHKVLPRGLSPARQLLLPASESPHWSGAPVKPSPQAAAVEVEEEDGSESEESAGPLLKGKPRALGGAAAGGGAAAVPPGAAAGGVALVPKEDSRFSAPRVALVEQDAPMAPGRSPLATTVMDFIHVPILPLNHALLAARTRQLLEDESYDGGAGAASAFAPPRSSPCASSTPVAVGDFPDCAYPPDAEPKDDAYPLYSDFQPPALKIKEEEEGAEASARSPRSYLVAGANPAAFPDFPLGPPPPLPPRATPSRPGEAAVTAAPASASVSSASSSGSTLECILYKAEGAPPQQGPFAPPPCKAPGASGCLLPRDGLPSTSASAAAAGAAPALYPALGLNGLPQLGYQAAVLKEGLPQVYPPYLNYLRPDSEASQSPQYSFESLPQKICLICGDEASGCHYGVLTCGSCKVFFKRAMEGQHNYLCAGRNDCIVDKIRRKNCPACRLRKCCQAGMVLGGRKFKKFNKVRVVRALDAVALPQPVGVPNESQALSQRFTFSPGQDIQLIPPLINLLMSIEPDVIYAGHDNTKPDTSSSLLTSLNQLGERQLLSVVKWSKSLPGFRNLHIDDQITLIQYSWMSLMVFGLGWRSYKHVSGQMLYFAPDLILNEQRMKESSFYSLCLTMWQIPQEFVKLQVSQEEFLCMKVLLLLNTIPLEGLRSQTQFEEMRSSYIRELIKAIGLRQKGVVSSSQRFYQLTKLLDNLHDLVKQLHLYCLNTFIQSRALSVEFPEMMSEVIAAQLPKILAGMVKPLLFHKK
The format is functional.
Further: assay procedure not described here.

Chain of Histamine H2 receptor (P25021 whole entry): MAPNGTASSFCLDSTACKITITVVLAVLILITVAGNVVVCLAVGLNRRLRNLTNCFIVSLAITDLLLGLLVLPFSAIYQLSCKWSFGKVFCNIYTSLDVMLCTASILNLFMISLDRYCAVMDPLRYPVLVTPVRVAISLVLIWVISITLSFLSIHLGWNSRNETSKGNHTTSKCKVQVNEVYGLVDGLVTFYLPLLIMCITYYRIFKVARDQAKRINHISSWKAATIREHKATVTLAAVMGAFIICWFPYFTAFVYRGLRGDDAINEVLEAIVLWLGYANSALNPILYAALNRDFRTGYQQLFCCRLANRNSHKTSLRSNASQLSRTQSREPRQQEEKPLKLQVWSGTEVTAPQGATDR
Chain of Prostaglandin G/H synthase 1 (P23219 whole entry): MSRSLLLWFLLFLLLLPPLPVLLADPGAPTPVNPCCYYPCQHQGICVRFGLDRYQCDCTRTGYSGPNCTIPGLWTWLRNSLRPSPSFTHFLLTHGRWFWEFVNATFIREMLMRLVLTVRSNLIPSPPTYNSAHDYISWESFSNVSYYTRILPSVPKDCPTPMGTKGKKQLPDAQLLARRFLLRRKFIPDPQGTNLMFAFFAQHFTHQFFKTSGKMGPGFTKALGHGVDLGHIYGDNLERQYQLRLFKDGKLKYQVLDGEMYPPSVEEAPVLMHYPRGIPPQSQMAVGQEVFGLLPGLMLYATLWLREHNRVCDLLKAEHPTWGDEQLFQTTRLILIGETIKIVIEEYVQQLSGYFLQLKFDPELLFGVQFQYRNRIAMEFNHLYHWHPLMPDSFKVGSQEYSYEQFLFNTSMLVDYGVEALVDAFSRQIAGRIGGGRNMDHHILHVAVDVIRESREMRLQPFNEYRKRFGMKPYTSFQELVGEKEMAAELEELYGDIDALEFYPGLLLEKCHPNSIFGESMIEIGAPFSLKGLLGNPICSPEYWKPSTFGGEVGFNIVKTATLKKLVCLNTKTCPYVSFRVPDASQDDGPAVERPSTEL
Chain of Vasopressin V1a receptor (P37288 whole entry): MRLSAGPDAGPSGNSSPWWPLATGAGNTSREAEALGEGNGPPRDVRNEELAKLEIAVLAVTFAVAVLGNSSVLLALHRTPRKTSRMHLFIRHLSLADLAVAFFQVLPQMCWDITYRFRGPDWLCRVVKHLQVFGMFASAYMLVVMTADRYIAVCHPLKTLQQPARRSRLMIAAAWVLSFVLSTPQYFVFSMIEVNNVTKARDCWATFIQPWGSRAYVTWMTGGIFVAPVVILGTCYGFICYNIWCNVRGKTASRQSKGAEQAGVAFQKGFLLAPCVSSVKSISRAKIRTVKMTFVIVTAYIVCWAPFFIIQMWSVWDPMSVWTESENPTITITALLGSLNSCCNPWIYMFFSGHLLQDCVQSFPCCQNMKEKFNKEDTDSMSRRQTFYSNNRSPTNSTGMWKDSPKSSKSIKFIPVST
Chain of Histamine H3 receptor (Q9Y5N1 whole entry): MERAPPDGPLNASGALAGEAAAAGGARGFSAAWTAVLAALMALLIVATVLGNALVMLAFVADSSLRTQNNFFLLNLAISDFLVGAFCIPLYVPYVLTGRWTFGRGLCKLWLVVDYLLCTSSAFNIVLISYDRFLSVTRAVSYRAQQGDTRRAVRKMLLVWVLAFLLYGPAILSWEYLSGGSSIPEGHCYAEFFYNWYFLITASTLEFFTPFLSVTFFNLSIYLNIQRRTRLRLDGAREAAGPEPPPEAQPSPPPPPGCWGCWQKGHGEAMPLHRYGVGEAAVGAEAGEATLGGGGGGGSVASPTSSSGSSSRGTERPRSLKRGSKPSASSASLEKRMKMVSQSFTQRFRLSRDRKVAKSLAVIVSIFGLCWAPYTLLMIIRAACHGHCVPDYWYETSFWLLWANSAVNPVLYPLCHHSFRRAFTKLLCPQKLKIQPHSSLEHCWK
Chain of Cannabinoid receptor 1 (P21554 whole entry): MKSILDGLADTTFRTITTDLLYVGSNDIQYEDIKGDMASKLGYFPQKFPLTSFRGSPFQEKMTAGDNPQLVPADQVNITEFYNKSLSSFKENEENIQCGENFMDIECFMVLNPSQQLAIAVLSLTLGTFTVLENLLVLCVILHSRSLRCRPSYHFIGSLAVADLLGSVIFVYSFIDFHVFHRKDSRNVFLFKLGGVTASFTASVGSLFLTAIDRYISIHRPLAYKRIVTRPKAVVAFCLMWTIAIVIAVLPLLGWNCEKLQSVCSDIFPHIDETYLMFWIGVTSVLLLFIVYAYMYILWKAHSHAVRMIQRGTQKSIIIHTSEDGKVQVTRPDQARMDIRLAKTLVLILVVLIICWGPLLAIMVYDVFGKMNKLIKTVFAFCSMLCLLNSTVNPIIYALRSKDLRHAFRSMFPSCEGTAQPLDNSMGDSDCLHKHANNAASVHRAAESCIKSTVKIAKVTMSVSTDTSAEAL

`O=C(O)[C@@H](S)[C@@H](S)C(=O)O`: the AC50 (in [1]; on Histamine H3 receptor) was over 30 µM in each case.
With `C=CC1=C(C(=O)O)N2C(=O)[C@@H](NC(=O)/C(=N\O)c3csc(N)n3)[C@H]2SC1`, the AC50 at Cannabinoid receptor 1 is over 30 µM; on Vasopressin V1a receptor it was over 30 µM; at Histamine H2 receptor, over 10 µM; in test [2], over 10 µM; in test [3], over 30 µM; at Thromboxane A2 receptor, over 30 µM.
With `O=C(O)COC(=O)Cc1ccccc1Nc1c(Cl)cccc1Cl` [ACECLOFENAC], the AC50 is over 30 µM on Cannabinoid receptor 1; over 30 µM at Vasopressin V1a receptor; over 10 µM at Histamine H2 receptor; over 30 µM in test [3]; 2.54 µM on Thromboxane A2 receptor.
In the case of `NCCCNCCSP(=O)(O)O` [AMIFOSTINE], the AC50 on Cannabinoid receptor 1, on Histamine H2 receptor and at Thromboxane A2 receptor was over 30 µM each time.
Take `NCCCCCC(=O)O` [AMINOCAPROIC ACID]: the AC50 on Histamine H2 receptor, on Progesterone receptor and at Thromboxane A2 receptor was over 10 µM each time.
As for `CN1CC2c3ccccc3Oc3ccc(Cl)cc3C2C1` (stereo not given) [ASENAPINE], the AC50 was over 30 µM on Cannabinoid receptor 1, over 30 µM at Vasopressin V1a receptor, over 30 µM on Progesterone receptor and 0.0014 µM in test [3].
Regarding `CC(C)NCC(O)COc1ccc(CC(N)=O)cc1` (stereo not given) [ATENOLOL], the AC50 (on Vasopressin V1a receptor; on Histamine H2 receptor; at Progesterone receptor; in test [3]; at Thromboxane A2 receptor) was over 30 µM throughout.
`CC(C)C[C@H](NC(=O)[C@H](Cc1ccccc1)NC(=O)c1cnccn1)B(O)O` [BORTEZOMIB]: the AC50 (on Vasopressin V1a receptor; on Histamine H2 receptor; on Progesterone receptor; in [2]; at Thromboxane A2 receptor) was over 30 µM throughout.
In the case of `C[C@H](CS)C(=O)N1CCC[C@H]1C(=O)O` [CAPTOPRIL], the AC50 (on Histamine H2 receptor; in test [3]) was over 30 µM in each case.
Consider `O=C(Cc1cccs1)N[C@@H]1C(=O)N2C(C(=O)[O-])=C(C[n+]3ccccc3)CS[C@H]12` [CEPHALORIDINE], for which the AC50 (in [1]; at Histamine H3 receptor; on Cannabinoid receptor 1; on Histamine H2 receptor; in test [2]; in [3]) was over 30 µM throughout.
As for `C[C@H](CCC(=O)O)[C@H]1CC[C@H]2[C@@H]3[C@H](O)C[C@@H]4C[C@H](O)CC[C@]4(C)[C@H]3CC[C@]12C` [CHENODIOL], the AC50 was over 30 µM at Cannabinoid receptor 1, over 30 µM on Vasopressin V1a receptor, over 30 µM in test [2] and 19 µM in [3].
`CCCCCCCCCCCCCCCC(=O)OC[C@H](COP(=O)([O-])OCC[N+](C)(C)C)OC(=O)CCCCCCCCCCCCCCC` [COLFOSCERIL PALMITATE]: the AC50 (in test [1]; at Histamine H3 receptor) was over 30 µM each time.
Turning to `C[C@@H](CN1CC(=O)NC(=O)C1)N1CC(=O)NC(=O)C1` [DEXRAZOXANE], the AC50 in test [1] is 5.98 µM; on Histamine H3 receptor it was over 30 µM.
`COC(=O)CCc1ccc(OCC(O)CNC(C)C)cc1` (stereo not given) [ESMOLOL]: the AC50 (at Histamine H2 receptor; at Progesterone receptor; in [3]; at Thromboxane A2 receptor) was over 30 µM in each case.
For `C[C@]12CCC(=O)C=C1CC[C@H]1[C@@H]3CC[C@](O)(C(=O)CO)[C@@]3(C)C[C@H](O)[C@@]12F` [FLUDROCORTISONE], the AC50 is over 30 µM at Cannabinoid receptor 1; over 30 µM at Vasopressin V1a receptor; over 10 µM on Histamine H2 receptor; over 10 µM in test [2]; over 30 µM in test [3]; over 30 µM on Thromboxane A2 receptor.
With `O=c1[nH]cc(F)c(=O)[nH]1` [FLUOROURACIL], the AC50 (in test [1]; at Histamine H3 receptor; at Vasopressin V1a receptor; on Progesterone receptor) was over 30 µM each time.
In the case of `CCN(CCO)CCCC(C)Nc1ccnc2cc(Cl)ccc12` (stereo not given) [HYDROXYCHLOROQUINE], the AC50 at Histamine H2 receptor, at Progesterone receptor and at Thromboxane A2 receptor was over 10 µM each time.
On to `OCCOCCN1CCN(C(c2ccccc2)c2ccc(Cl)cc2)CC1` (stereo not given) [HYDROXYZINE], for which the concentration at half-maximal activity (AC50) at Cannabinoid receptor 1 was over 30 µM; at Vasopressin V1a receptor, over 10 µM; on Histamine H2 receptor, over 10 µM; in [2] it was 8 µM; in [3], 9.67 µM; on Thromboxane A2 receptor, over 30 µM.
Turning to `O=C(c1ccccc1)c1ccc2n1CCC2C(=O)O` (stereo not given) [KETOROLAC], the AC50 at Vasopressin V1a receptor was over 10 µM; on Histamine H2 receptor, over 30 µM; at Progesterone receptor it was over 10 µM; in test [3] it was over 30 µM; on Thromboxane A2 receptor, over 10 µM.
Turning to `Nc1nnc(-c2cccc(Cl)c2Cl)c(N)n1` [LAMOTRIGINE], the AC50 on Vasopressin V1a receptor was over 10 µM; at Histamine H2 receptor, over 10 µM; in [3] it was over 30 µM; on Thromboxane A2 receptor, over 30 µM.
For `O=NN(CCCl)C(=O)NC1CCCCC1` [LOMUSTINE], the AC50 (in test [1]; on Histamine H3 receptor) was over 30 µM throughout.
With `CNC1(C)C2CCC(C2)C1(C)C` (stereo not given) [MECAMYLAMINE], the AC50 (at Vasopressin V1a receptor; on Histamine H2 receptor; on Progesterone receptor; in test [2]; at Thromboxane A2 receptor) was over 10 µM throughout.
For the molecule `CO[C@@]1(NC(=O)C(C(=O)O)c2ccc(O)cc2)C(=O)N2C(C(=O)O)=C(CSc3nnnn3C)CO[C@@H]21` (stereo not given in full) [MOXALACTAM], the AC50 (in [1]; at Histamine H3 receptor) was over 30 µM in each case.
Take `C#CCN(C)Cc1ccccc1` [PARGYLINE]: the AC50 (in test [1]; at Histamine H3 receptor; at Cannabinoid receptor 1; at Histamine H2 receptor; in test [2]; in [3]) was over 30 µM throughout.
In the case of `COc1cccc2c1C(=O)c1c(O)c3c(c(O)c1C2=O)C[C@@](O)(C(=O)CO)C[C@@H]3O[C@H]1C[C@H](N)[C@H](O[C@@H]2CCCCO2)[C@H](C)O1` [PIRARUBICIN], the AC50 in test [1] was 1.57 µM; on Histamine H3 receptor, over 30 µM.
`CCC1(c2ccccc2)C(=O)NCNC1=O` [PRIMIDONE]: the AC50 at Histamine H2 receptor, on Progesterone receptor and on Thromboxane A2 receptor was over 10 µM in each case.
`CCOc1ccccc1OCCN[C@H](C)Cc1ccc(OC)c(S(N)(=O)=O)c1` [TAMSULOSIN]: the AC50 was over 30 µM at Vasopressin V1a receptor, over 10 µM at Histamine H2 receptor, 1.9 µM in test [2] and over 30 µM at Thromboxane A2 receptor.

In general, AC50 refers to the concentration giving half of the maximal activity seen.
